Earlier results in patent publication US20170101624A1, “METHODS OF ENHANCING T-CELL LONGEVITY AND USES THEREOF” (Washington University, priority 2015, published 2017).

Test system: Drp1 (Dnm1)
Details: as disclosed in Cassidy-Stone et al. Developmental Cell 2008

Compound: COc1cc(-n2c(=S)[nH]c3ccccc3c2=O)c(Cl)cc1Cl [compound A]
- efficacy relative to Mdivi-1 (inhibition of mitochondrial fission): full efficacy
